Measurements: ChEMBL document CHEMBL3886925, “Thieno- and furo[2,3-d]pyrimidine-2,4[1H,3H]-dione derivatives” (2016)

Molecular target: T1, Short transient receptor potential channel 5 (Homo sapiens, UniProt Q9UL62)
T1 sequence (Q9UL62 whole entry): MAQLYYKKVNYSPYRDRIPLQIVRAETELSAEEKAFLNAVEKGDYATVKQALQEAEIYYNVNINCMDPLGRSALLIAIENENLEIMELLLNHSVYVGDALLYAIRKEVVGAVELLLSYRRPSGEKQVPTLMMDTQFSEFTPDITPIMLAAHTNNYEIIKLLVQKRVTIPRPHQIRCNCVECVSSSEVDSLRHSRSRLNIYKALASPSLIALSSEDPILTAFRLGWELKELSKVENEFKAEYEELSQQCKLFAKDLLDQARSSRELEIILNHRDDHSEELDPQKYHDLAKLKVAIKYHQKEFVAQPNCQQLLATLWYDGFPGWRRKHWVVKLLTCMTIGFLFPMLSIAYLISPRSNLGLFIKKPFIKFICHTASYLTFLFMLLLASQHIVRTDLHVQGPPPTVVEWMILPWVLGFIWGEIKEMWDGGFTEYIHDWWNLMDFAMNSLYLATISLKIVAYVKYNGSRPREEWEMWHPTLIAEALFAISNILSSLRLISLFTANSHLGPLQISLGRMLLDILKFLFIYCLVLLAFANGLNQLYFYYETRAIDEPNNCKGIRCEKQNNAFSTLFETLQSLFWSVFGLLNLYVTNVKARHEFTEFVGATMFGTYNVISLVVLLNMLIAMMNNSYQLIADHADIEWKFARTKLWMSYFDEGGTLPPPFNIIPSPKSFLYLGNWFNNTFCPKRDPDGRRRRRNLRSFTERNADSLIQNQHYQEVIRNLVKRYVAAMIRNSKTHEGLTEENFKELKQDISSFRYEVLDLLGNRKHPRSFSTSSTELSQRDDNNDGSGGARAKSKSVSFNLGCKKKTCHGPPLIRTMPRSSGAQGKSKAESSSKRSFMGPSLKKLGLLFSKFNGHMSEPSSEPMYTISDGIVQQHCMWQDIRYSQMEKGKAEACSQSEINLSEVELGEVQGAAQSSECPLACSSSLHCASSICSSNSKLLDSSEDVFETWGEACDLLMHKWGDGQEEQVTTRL
Assay: High Throughput Screening Assay: The commercially available HEK293/TREx line (Invitrogen) was stably transfected with a TRPC5 construct and screened by conventional calcium imaging to find clones with TRPC5 expression following stimulation with 1 μg/ml tetracycline. These cells were maintained in the growth medium recommended by the manufacturer supplemented with 100 μg/ml hygromycin to promote retention of the TRPC5 construct. After growing to near confluency, cells were plated at a density of Ë¿35,000 cells/well in 384 well CellBind plates (Corning) in the presence of 1 μg/ml tetracycline, and allowed to grow for 20-30 hrs. A nearly confluent monolayer resulted. Cells were then loaded with Ca2+ dye: Fura-2/AM or Fluo4/AM was added to the wells to a final concentration of 4 μM or 0.5 μM, respectively, and incubated for 80 min or 60 min, respectively, at room temperature. Supernatant was then removed from the cells by inverting plates with a sharp flick, and 25 μl Hank's Balanced Salt Solution (HBSS; 0.185 g/l D-glucose, 0.9767 g/l MgS04 (anhydrous), 0.4 g/l KCl, 0.06 g/l KH2PO4 (anhydrous), 0.35 g/l NaHCO3, 8.0 g/l NaCl, and 0.04788 g/l Na2HPO4 (anhydrous); pH 7.4) was then added to each well. […]

IC50	SMILES
194 nM	Cn1c(=O)n(CCCO)c(=O)c2c(C(O)c3ccc(Cl)cc3)c(Oc3cccc(OC(F)(F)F)c3)sc21 (configuration not stated)
31.6 nM	Cc1c(-c2cccc(Cl)c2Cl)sc2c1c(=O)n(CCCO)c(=O)n2C
